Experiments:
[1] = Bauditz et al. (1997); cited from earlier work
[2] = test system: soluble p75 and p55 TNF-R; settings: Crowe et al. (1995); Mullberg et al. (1995); cited from earlier work
TNF [3] = settings: Shohami et al. (1997); cited from earlier work
TNF [4] = settings: in vitro and in vivo; Solorzano et al. (1997); cited from earlier work
THP-1 cells [5] = assay: Induction of TRRE by PMA stimulation, TRRE assay of supernatant; assay type: cell-based, human; settings: for TRRE Activity (U/ml): THP-1, 10^−6 M PMA 30 min
THP-1 cells [6] = assay: as above; assay type: cell-based, human
Description: THP-1 cells growing in logarithmic phase were collected and resuspended to 1×10^6 cells/ml of RPMI-1640 supplemented with 1% FCS and incubated with 10^−6 M PMA for 30 min in 5% CO2 at 37° C. The cells were collected and washed once with serum-free medium to remove PMA and resuspended in the same volume of RPMI-1640 with 1% FCS. After 2 hours incubation in 5% CO2 at 37° C., the cell suspension was collected, centrifuged, and the cell-free supernatant was collected as the TRRE-containing sample.
Briefly, C75R and COS-1 cells were seeded at 2.5×10^5 cells/ml/well in a 24-well culture plate and incubated in 5% CO2 at 37° C. for 12 to 16 hours. […] Simultaneously, C75R was incubated with 300 μl of fresh medium or buffer. At the end of the incubation period, the samples from each well were collected and the levels of soluble p75 TNF-R were measured by ELISA.
(§1) C75R cells and COS-1 cells were seeded into 24-well culture plates at a density of 2.5×10^5 cells/ml/well and incubated overnight (for 12 to 16 hours) in 5% CO2 at 37° C. […] (corresponding to A and C mentioned below, respectively). Simultaneously, C75R cells in 24-well plates were also incubated with 300 μl of fresh medium or buffer (corresponding to B mentioned below). The supernatants were collected, centrifuged, and then assayed for the concentration of soluble p75 TNF-R by ELISA as described above.
(§2) The stimulated cells were washed with serum-free medium and resuspended in the same volume of PMA-free medium with 1% FCS for 2 more hours in 5% CO2 at 37° C.
(§3) Suspension cell lines including THP-1, U-937, HL-60, Raji and K-562 at a density of 1×10^6 cells/ml were stimulated in RPMI-1640/1% FCS-with 10^−6 M PMA for 30 min in 5% CO2 at 37° C. After pelleting the cells and discarding the supernatants, the cells were washed once with serum-free medium and then incubated for 2 more hours at the same density of 1×10^6 cells/ml in PMA-free RPMI-1640/1% FCS. Adherent cell lines including ME-180 and MRC-5 were seeded in 100 mm cell culture plates with RPMI-1640/10% FCS-at a density of 6×10^6 cells/10 ml/plate in 5% CO2 at 37° C. overnight. After discarding the medium from the 100 mm plates, these adherent cells were stimulated in 6 ml of RPMI-1640/1% FCS with 10^−6 M PMA (at an approximate density of 1×10^6 cells/ml) for 30 min in 5% CO2 at 37° C. Following washing of the plates with serum-free medium 3 times, the cells were incubated for 2 more hours in 6 ml of PMA-free RPMI-1640/1% FCS.
THP-1 cells were stimulated with 10−6 M PMA in RPMI-1640 with 1% FCS for 30 min.
THP-1 cells at a density of 1×10^6 cells/ml were stimulated in 1% FCS-contained RPMI-1640 with 10^−6 M PMA for 30 min at 37° C. in 5% CO2. After washing the cells with serum-free medium to remove PMA, the cells were incubated in the same volume of 1% FCS-contained RPMI-1640 without PMA for 2 hours at 37° C. in 5% CO2. Then the cells were centrifuged down and the supernatant was collected for TRRE assay. These pelleted cells were again resuspended in 1% FCS-contained RPMI-1640 with or without 10^−6 M PMA and incubated for 30 min at 37° C. in 5% CO2. After washing the cells with serum-free medium to remove PMA, the cells, stimulated or non-stimulated by PMA, were incubated in the same volume of 1% FCS-contained RPMI-1640 without PMA for 2 and 4 hours each at 37° C. in 5% CO2.

K-562 = assay: as above; assay type: cell-based, human; settings: K-562, 10^−6 M PMA
Description: (§4) THP-1 (a human monocytic leukemia cell line), U-937 (a human histiocytic lymphoma cell line), HL-60 (a human promyelocytic leukemia cell line), Raji (a human Burkitt lymphoma cell line) and K-562 (a human myelogenous leukemia cell line), which grow in suspension, and ME-180 (a human epidermoid carcinoma cell line) and MRC-5 (a human lung fibroblast cell line), which grow adherently, were purchased from American Type Culture Collection (Rockville, Md.). These cell lines were passed twice a week in RPMI-1640/10% heat-inactivated FCS.
as §3

HL-60 = assay: as above; assay type: cell-based, human; settings: HL-60, 10^−6 M PMA
Description: as §4, §3

MRC-5 = assay: as above; assay type: cell-based, human; settings: MRC-5, 10^−6 M PMA
Description: as §4, §3

U-937 = assay: as above; assay type: cell-based, human; settings: U-937, 10^−6 M PMA
Description: as §4, §3

ME-180 = assay: as above; assay type: cell-based, human; settings: ME-180, 10^−6 M PMA
Description: as §4, §3

Raji = assay: as above; assay type: cell-based, human; settings: 10^−6 M PMA
Description: as §4, §3

[7] = test system: human peripheral blood monocytes; assay: as above; assay type: cell-based; settings: for TRRE Activity (U): Human Monocyte
Description: as §1
Mononuclear cells were harvested at the interface of an isotonic Ficoll cushion (specific gravity, 1.05) from a Leukopac obtained from normal healthy volunteers according to the manufacturer's instructions (Sigma). Then monocytes were isolated by counterflow centrifugal elutriation with a Beckman JE-5.0 system. On average, the purity of the monocyte fraction was over 95%, as judged by morphologic examination and nonspecific esterase staining, and viability was over 98% as assessed by the trypan blue dye exclusion test.
as §2

CC(=O)CCCCn1c(=O)c2c(ncn2C)n(C)c1=O [oxpentifylline]
course of Crohn's disease [1]: did not alter the course

TAPI
shedding of soluble p75 and p55 TNF-R [2]: blocks the shedding

CCCCCCC(C)(C)c1cc(O)c2c(c1)OC(C)(C)[C@H]1CC=C(CO)C[C@H]21 [dexanabinol]
protection against TNF following traumatic brain injury (TNF [3]): provided protection

CNC(=O)[C@H](Cc1c[nH]c2ccccc12)NC(=O)[C@@H](CC(=O)NO)CC(C)C [GM-6001]
release of TNF (TNF [4]): prevents the release of TNF

CCCCCCCCCCCCCC(=O)O[C@@H]1[C@@H](C)[C@@]2(O)[C@@H](C=C(CO)C[C@]3(O)C(=O)C(C)=C[C@@H]23)[C@@H]2C(C)(C)[C@]12OC(C)=O [PMA, phorbol 12-myristate 13-acetate]
TRRE produced (FIG. 10A) (THP-1 cells [5]; PMA-stimulated THP-1, 0% FCS): 217 U/ml | TRRE Activity (U/ml) (THP-1 cells [5]; then 2 hours PMA-free with 0% FCS): 224 U/ml | TRRE Activity (U/ml) (THP-1 cells [5]; then 2 hours PMA-free with 10% FCS): 2,275 U/ml | TRRE induction (THP-1 cells [5]; THP-1, 10^−8 M PMA): did not induce any TRRE | TRRE Activity (U) (THP-1 cells [5]; THP-1, PMA 10^−7 M): 368 U | TRRE produced (FIG. 10A) (THP-1 cells [6]; PMA-stimulated THP-1, 1% FCS): 2,096 U/ml | TRRE (U/ml/10^6 cells) (THP-1 cells [6]; THP-1, 10^−6 M PMA): 2,884 U/ml/10^6 cells | TRRE release (THP-1 cells [6]; THP-1, 10^−6 M PMA 30 min, then 2 hours PMA-free): 1,304 U/ml | TRRE Activity (U/ml) (THP-1 cells [6]; THP-1, 10^−6 M PMA 30 min, then 2 hours PMA-free with 1% FCS): 1,356 U/ml | TRRE Activity (U) (THP-1 cells [6]; THP-1, PMA 10^−6 M): 1,304 U | TRRE released (THP-1 cells [6]; THP-1, after first PMA stimulation, no second PMA, 2 hours and 4 hours): no TRRE activity | TRRE released (THP-1 cells [6]; THP-1, first stimulation of PMA): 951 U/ml | TRRE released (THP-1 cells [6]; THP-1, second PMA stimulation 30 min, additional 2 hours PMA-free): 1,245 U/ml | TRRE released (THP-1 cells [6]; THP-1, second PMA stimulation 30 min, additional 4 hours PMA-free): 1,044 U/ml | TRRE (U/ml/10^6 cells) (K-562): 3,356 U/ml/10^6 cells | TRRE (U/ml/10^6 cells) (HL-60): 3,144 U/ml/10^6 cells | TRRE (U/ml/10^6 cells) (MRC-5): 1,477 U/ml/10^6 cells | TRRE (U/ml/10^6 cells) (U-937): 3,288 U/ml/10^6 cells | TRRE (U/ml/10^6 cells) (ME-180): 1,694 U/ml/10^6 cells | TRRE (U/ml/10^6 cells) (Raji): 2,390 U/ml/10^6 cells | TRRE Activity (U) ([7]; PMA 10^−6 M): 883 U | TRRE Activity (U) ([7]; PMA 10^−7 M): 51 U | TRRE release ([7]; human monocytes, 10^−6 M PMA 30 min, then 2 hours PMA-free): 883 U/ml | TRRE induction ([7]; monocytes, 10^−8 M PMA): did not induce any TRRE

Source: patent publication US6858402B2 (The Regents of the University of California, priority 1996, dated 2005)
